The values below come from patent US6638928B1, “Treatment of irritable bowel syndrome and nonulcer dyspepsia with substituted 2,3-benzodiazepines” (Vela Pharmaceuticals, Inc., priority 2002, dated 2003).

The subject of test [1] is colonic propulsive motility. Kind of test: Glass bead test of colonic propulsive motility in mice. The format is in vivo, mouse. The settings on record: 32 mg/kg IP; for Expulsion Time Mean ± SEM: 3 mm glass bead inserted 30 minutes after dosing, cut-off time 30 minutes, 10 per group; for Expulsion Time Mean ± SEM / inhibition at 32 mg/kg: female Swiss Webster mice; for inhibition at 32 mg/kg: Mus musculus, inhibition of bead expulsion vs vehicle; for inhibition of colonic propulsion (in words): summary of Table 1 data, mice. The text has this: This model is predictive of agents that may be used to treat the alterations in propulsion of intestinal contents that occur in individuals diagnosed with IBS. The model is very sensitive to test compounds producing inhibitory effects on propulsive motor activity, but is not sensitive to test articles increasing colonic propulsive motility. The model provides a direct measure of colonic propulsion. Thus, a test compound that slows the rate at which a glass bead is expelled, is predicted to have utility in the treatment of IBS,
This test is also used to evaluate test articles with potential to produce constipation, antidiarrheal activity, or have selective visceral anti-nociceptive activity in addition to being used as an animal model for irritable bowel syndrome.
For the present example, seventy test animals (female, 6 week old Swiss Webster mice, 18-30 g) were divided into 7 groups of 10 animals each for administration of six test compounds and vehicle alone as a control.
Each animal was dosed (IP) with either a compound of formula I, one of two related 2,3-benzodiazepines or vehicle alone. Thirty minutes after dosing, a 3 mm glass bead was inserted through the anus to a depth of 2 cm into the distal colon using a glass rod. […] Any test animal that had not expelled the bead within a cut-off time of 30 minutes was sacrificed and the position of the bead in the lumen of the colon was verified.
Such observations included gross evaluation of skin and fur, eyes and mucous membranes, respiratory, circulatory, autonomic and central nervous system, somatomotor activity and behavioral patterns. Particular attention was directed to observation of tremors, convulsions, salivation, diarrhea, sleep and coma. No signs of gross toxicity were observed. Mean and standard error of the mean were calculated for the expulsion times for each group.

Test [2] concerns central BZ receptors. To be noted: cited from earlier work.
The target of test [3] is peripheral BZ receptors (Homo sapiens, UniProt P30536). To be noted: cited from earlier work.
peripheral BZ receptors, sequence (P30536 whole entry): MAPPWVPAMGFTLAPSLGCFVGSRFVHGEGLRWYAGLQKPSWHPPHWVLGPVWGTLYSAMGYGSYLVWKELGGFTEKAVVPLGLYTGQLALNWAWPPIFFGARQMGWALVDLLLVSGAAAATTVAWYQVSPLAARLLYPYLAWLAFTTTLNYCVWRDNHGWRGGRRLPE
Test [4] relates to aggression in mice. To be noted: cited from earlier work.
For test [5], the system named is muricide in rats. To be noted: cited from earlier work.
For test [6], the system named is anti-noradrenergic effects. To be noted: cited from earlier work.
The test system of test [7] is narcosis in mice. To be noted: cited from earlier work.

The term inhibition denotes the drop in the measured response relative to a control, in per cent. Low readings indicate little suppression, high ones strong suppression. Consider `CCC1C(C)=NN=C(c2ccc(OC)c(OC)c2)c2cc(O)c(OC)cc21` (racemic) [Compound 2, 1-(3,4-dimethoxyphenyl)-4-methyl-5-ethyl-7-methoxy-8-hydroxy-5H-2,3-benzodiazepine], for which, in test [1], the “Expulsion Time Mean ± SEM” value is 17.2 ± 3.5 and 32 mg/kg produced 23% inhibition.

For the compound `CCC1C(C)=NN=C(c2ccc(OC)c(O)c2)c2cc(OC)c(OC)cc21` (racemic) [Compound 4, 1-(3-hydroxy-4-methoxyphenyl)-4-methyl-5-ethyl-7,8-dimethoxy-5H-2,3-benzodiazepine], in test [1], the “Expulsion Time Mean ± SEM” value was 20.3 ± 3.5, 32 mg/kg produced 42% inhibition and the “inhibition of colonic propulsion (in words)” value is “substantial inhibition of colonic propulsion”.

On to `CCC1C(C)=NN=C(c2ccc(OC)c(OC)c2)c2cc(OC)c(OC)cc21` (racemic) [tofisopam, 1-(3,4-dimethoxyphenyl)-4-methyl-5-ethyl-7,8-dimethoxy-5H-2,3-benzodiazepine], for which the “interaction with central BZ receptors” value in test [2] is listed as “does not interact”. Moreover, the “binding to peripheral BZ receptors” value in test [3] is “binds only weakly”.

Consider `CCC1C(C)=NN=C(c2ccc(OC)c(OC)c2)c2cc(OC)c(O)cc21` (centres unmarked) [Compound 1, 1-(3,4-dimethoxyphenyl)-4-methyl-5-ethyl-7-hydroxy-8-methoxy-5H-2,3-benzodiazepine], for which, in test [1], the “Expulsion Time Mean ± SEM” value turned out to be 6.9 ± 3.7 and testing at 32 mg/kg gave an inhibition of 22%. The inhibition of aggression in test [4] was 0%. The inhibition of muricide in test [5] is recorded as 20%. Besides, in test [6], the anti-noradrenergic effects entry is given as “no effect”.

Take `CCC1C(C)=NN=C(c2ccc(O)c(OC)c2)c2cc(OC)c(OC)cc21` (centres unmarked) [Compound 3, 1-(3-methoxy-4-hydroxyphenyl)-4-methyl-5-ethyl-7,8-dimethoxy-5H-2,3-benzodiazepine]: in test [1], the “Expulsion Time Mean ± SEM” value is 20.0 ± 3.1, the inhibition at 32 mg/kg was 40% and the “inhibition of colonic propulsion (in words)” value is reported as “substantial inhibition of colonic propulsion”. For the same compound, the inhibition of aggression in test [4] is on record as 0%. The inhibition of muricide in test [5] is 0%. For the same compound, in test [6], the anti-noradrenergic effects entry is given as “measurable activity”. Moreover, the narcosis-potentiating activity entry in test [7] is given as “narcosis-potentiating activity”.

Consider `CCC1C(C)=NN=C(c2ccc(O)c(OC)c2)c2cc(OC)c(O)cc21` (centres unmarked) [Compound 5, 1-(3-methoxy-4-hydroxyphenyl)-4-methyl-5-ethyl-7-hydroxy-8-methoxy-5H-2,3-benzodiazepine, reference compound], for which, in test [1], the “Expulsion Time Mean ± SEM” value was 12.0 ± 3.2 and the inhibition at 32 mg/kg was 0%. Also, the inhibition of aggression in test [4] is given as 28.6%. The inhibition of muricide in test [5] is given as 20%. The anti-noradrenergic effects entry in test [6] is “measurable activity”.

Turning to `CCC1C(C)=NN=C(c2ccc(OC)c(O)c2)c2cc(OC)c(O)cc21` (centres unmarked) [Compound 6, 1-(3-hydroxy-4-methoxyphenyl)-4-methyl-5-ethyl-7-hydroxy-8-methoxy-5H-2,3-benzodiazepine, reference compound], in test [1], the “Expulsion Time Mean ± SEM” value was 10.7 ± 3.4 and at 32 mg/kg the inhibition was 0%.
